In paper PMC8876975, “EGFR and COX-2 Dual Inhibitor: The Design, Synthesis, and Biological Evaluation of Novel Chalcones” (Molecules, 2022):
Read-outs that look alike come from different tables or passages of the source.

How the values were obtained:
human recombinant COX-2 = target: T1, human recombinant COX-2 (Homo sapiens, UniProt P35354); experiment: Cyclooxygenase assay (PGE2 quantification), COX-2; assay type: biochemical; conditions: mean ± SD; n = 3
T1 construct: purchased Cayman Chemicals
T1 sequence (P35354 18-604): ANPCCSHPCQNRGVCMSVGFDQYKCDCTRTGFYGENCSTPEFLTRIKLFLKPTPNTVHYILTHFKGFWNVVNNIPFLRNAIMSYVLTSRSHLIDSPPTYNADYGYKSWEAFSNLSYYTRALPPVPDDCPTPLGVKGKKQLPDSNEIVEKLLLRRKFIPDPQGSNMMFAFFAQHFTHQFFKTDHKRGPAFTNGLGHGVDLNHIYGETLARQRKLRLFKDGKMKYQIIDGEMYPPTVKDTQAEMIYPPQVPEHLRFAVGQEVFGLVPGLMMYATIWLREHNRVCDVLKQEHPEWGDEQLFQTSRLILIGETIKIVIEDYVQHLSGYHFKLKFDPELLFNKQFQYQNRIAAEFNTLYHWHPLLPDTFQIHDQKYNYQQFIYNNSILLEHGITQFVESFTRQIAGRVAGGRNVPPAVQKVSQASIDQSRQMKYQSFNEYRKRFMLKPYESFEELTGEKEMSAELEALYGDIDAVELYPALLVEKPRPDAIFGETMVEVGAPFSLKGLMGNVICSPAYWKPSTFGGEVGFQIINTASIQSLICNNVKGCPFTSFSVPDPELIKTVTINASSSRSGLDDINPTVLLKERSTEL

[1] = target: T2, human recombinant sPLA2-V (Homo sapiens, UniProt P39877); experiment: Secretory PLA2-V activity assay (Ellman's photometric method)
T2 sequence (P39877 21-138): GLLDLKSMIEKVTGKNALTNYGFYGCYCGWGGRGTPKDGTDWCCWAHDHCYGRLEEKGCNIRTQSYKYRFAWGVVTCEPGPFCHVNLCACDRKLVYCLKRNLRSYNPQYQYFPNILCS

Sheep-derived COX-1 = target: T3, Sheep-derived COX-1 (Ovis aries, UniProt P05979); experiment: Cyclooxygenase assay (PGE2 quantification), COX-1
T3 sequence (P05979 25-600): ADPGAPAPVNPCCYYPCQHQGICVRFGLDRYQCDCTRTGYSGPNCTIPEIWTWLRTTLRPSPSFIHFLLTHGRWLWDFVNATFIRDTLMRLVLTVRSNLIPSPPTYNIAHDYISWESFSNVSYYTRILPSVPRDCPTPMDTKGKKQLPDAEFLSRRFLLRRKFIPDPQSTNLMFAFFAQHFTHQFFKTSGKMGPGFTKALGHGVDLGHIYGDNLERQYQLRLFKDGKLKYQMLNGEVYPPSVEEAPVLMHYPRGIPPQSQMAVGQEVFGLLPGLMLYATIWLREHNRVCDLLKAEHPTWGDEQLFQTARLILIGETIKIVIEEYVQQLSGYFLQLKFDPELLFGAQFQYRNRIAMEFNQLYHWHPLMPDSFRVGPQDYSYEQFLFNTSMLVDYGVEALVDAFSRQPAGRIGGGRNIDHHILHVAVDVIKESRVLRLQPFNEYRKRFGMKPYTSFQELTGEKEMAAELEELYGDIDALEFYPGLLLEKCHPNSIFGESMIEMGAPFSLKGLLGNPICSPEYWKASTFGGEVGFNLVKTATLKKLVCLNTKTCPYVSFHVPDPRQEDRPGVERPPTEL

[2] = Cell viability % (MTT, normal cell line); conditions: human, MRC5 normal fetal lung fibroblast cells
lung cancer (H-460) = experiment: MTT cytotoxicity assay, H-460; assay type: cell-based; conditions: Homo sapiens, NCI-H460; H-460, MTT, 72 h; read-out: Antiproliferative Activity IC50 ± SEM, H-460
[3] = test system: pancreatic cancer (PaCa-2); experiment: MTT cytotoxicity assay, PaCa-2; assay type: cell-based; conditions: PaCa-2, MTT, 72 h; read-out: Antiproliferative Activity IC50 ± SEM, PaCa-2
[4] = test system: pancreatic ductal cancer (Panc-1); experiment: MTT cytotoxicity assay, Panc-1; assay type: cell-based; conditions: Homo sapiens; Panc-1, MTT, 72 h; read-out: Antiproliferative Activity IC50 ± SEM, Panc-1
[5] = test system: human colon cancer (HT-29); experiment: MTT cytotoxicity assay, HT-29; assay type: cell-based; conditions: Homo sapiens; HT-29, MTT, 72 h; read-out: Antiproliferative Activity IC50 ± SEM, HT-29
[6] = test system: human malignant melanoma (A375); experiment: MTT cytotoxicity assay, A375; assay type: cell-based; conditions: Homo sapiens, A-375, 72 h, read-out: Antiproliferative Activity IC50 ± SEM, A375
EGFR = target: T4, EGFR (Homo sapiens, UniProt P00533); experiment: EGFR kinase inhibition assay (EGFR Kinase Assay Kit); assay type: biochemical; conditions: triplicates; read-out: EGFR Inhibition IC50 ± SEM
T4 construct: purchased PBS Bioscience (so in the source)

TNF-α = experiment: ELISA, LPS-induced TNF-α release in RAW264.7 macrophages; assay type: cell-based, mouse
IL-6 = experiment: ELISA, LPS-induced IL-6 release in RAW264.7 macrophages; assay type: cell-based, mouse
[7] = Mus musculus, RAW264.7, RAW 264.7, compound 10 µM for 2 h, then LPS 0.5 µg/mL for 22 h

T4 sequence (P00533 25-1210): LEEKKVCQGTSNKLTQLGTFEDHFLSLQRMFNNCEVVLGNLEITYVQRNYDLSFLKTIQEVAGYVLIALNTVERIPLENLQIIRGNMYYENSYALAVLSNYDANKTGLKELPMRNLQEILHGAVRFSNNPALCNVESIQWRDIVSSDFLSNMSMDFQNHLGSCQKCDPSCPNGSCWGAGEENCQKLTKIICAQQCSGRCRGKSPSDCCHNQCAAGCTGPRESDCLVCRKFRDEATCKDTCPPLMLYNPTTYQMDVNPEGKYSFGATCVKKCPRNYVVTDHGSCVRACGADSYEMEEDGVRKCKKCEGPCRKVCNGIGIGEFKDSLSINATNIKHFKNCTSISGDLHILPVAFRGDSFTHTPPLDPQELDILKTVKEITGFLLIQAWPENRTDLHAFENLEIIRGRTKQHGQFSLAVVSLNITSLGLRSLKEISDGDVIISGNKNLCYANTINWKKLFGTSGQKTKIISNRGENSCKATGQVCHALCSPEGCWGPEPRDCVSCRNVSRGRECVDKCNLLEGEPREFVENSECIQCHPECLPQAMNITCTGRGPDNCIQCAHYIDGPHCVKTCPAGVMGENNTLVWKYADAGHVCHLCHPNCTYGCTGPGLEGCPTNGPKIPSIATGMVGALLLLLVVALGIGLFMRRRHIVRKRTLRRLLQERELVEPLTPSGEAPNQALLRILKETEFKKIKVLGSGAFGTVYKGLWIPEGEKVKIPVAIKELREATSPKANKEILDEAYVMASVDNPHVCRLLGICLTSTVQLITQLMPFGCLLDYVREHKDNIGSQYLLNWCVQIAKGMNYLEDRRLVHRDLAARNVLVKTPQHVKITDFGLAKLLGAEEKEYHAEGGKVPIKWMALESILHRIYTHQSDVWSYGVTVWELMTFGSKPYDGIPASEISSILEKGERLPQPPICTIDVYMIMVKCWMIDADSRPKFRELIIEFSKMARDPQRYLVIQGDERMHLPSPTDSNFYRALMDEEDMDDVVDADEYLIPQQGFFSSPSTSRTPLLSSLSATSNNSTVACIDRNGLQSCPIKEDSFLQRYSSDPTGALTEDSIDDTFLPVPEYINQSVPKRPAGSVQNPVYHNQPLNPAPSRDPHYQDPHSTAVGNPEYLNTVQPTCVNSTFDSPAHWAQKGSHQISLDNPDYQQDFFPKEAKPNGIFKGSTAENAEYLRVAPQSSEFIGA

Row | SMILES | IC50 (human recombinant COX-2) | IC50 [1] | IC50 (Sheep-derived COX-1) | viability at 72 h [2] | IC50 (lung cancer (H-460)) | IC50 [3] | IC50 [4] | IC50 [5] | IC50 [6] | IC50 (EGFR) | IC50 ([1]; read-out: sPLA2-V IC50, mean ± SD, n = 3) | inhibition at 10 µM (TNF-α; [7]) | Relative Amount of LPS (TNF-α) (TNF-α; RAW 264.7, compound 10 µM, TNF-α relative to LPS control = 100) | inhibition at 10 µM (IL-6; [7]) | Relative Amount of LPS (IL-6) (IL-6; RAW 264.7, compound 10 µM, IL-6 relative to LPS control = 100)
1 | CN(C)c1ccc(/C=C/C(=O)c2cccc(/N=N\c3c(O)ccc4ccccc34)c2)cc1 [Compound C17, (E)-3-(4-(dimethylamino)phenyl)-1-(3-((Z)-(2-hydroxynaphthalen-1-yl)diazenyl)phenyl) prop-2-en-1-one] | 5.29 ± 1.1 µM | 9.45 ± 1.67 µM | 49.1 ± 2.69 µM | 87.2 ± 1.4% | 5.6 ± 2.1 µM | 7.5 ± 1.9 µM | 2500 ± 1200 nM | 9.2 ± 1.6 µM | 8.8 ± 2.5 µM |  |  |  |  |  | 
2 | O=C(/C=C/c1ccc(F)cc1)c1cccc(/N=N/c2ccc(O)cc2O)c1 [Compound C8, (E)-1-(3-((E)-(2,4-Dihydroxyphenyl)diazenyl)phenyl)-3-(4-fluorophenyl) prop-2-en-1-one] | 32.1 ± 1.4 µM | 14.2 ± 1.32 µM | 5.14 ± 1.27 µM | 83.5 ± 1.2% | 2.2 ± 0.5 µM | 2.8 ± 0.6 µM | 1900 ± 700 nM | 2.5 ± 7 µM | 2.6 ± 0.5 µM | 4.9 ± 0.9 µM |  |  |  |  | 
3 | C[C@@H]1C[C@H]2[C@@H]3CCC4=CC(=O)C=C[C@]4(C)[C@@]3(F)[C@@H](O)C[C@]2(C)[C@@]1(O)C(=O)CO [Dexamethasone, reference compound] |  |  |  |  |  |  |  |  |  |  | 0.57 ± 0.06 µM |  |  |  | 
4 | CC(=O)c1cccc(/N=N/c2ccc(O)c(C(=O)O)c2)c1 [Compound A3, (E)-5-((3-Acetylphenyl)diazenyl)-2-hydroxybenzoic acid] | 2.4 ± 0.8 µM | 2.14 ± 0.94 µM | 0.21 ± 0.07 µM | 79.6 ± 4.5% | 1.8 ± 0.4 µM | 2.4 ± 1.5 µM | 2200 ± 900 nM | 1.8 ± 0.5 µM | 4 ± 1.5 µM | 4.3 ± 0.7 µM |  | 79% | 21 | 72% | 28
5 | C#Cc1cccc(Nc2ncnc3cc(OCCOC)c(OCCOC)cc23)c1 [Erlotinib, reference compound] |  |  |  |  | 0.04 ± 0.02 µM | 0.06 ± 0.04 µM | 50 ± 20 nM | 0.07 ± 0.04 µM | 4.14 ± 1.2 µM |  |  |  |  |  | 
6 | CC(=O)c1cccc(/N=N/c2ccc(O)cc2O)c1 [Compound A2, (E)-1-(3-((2,4-Dihydroxyphenyl)daizenyl)phenyl)ethan-1-one] | 27.9 ± 1.65 µM | 7.25 ± 1.24 µM | 22.2 ± 2.45 µM | 90.4 ± 1.9% | 5.9 ± 2.4 µM | 9.6 ± 1.5 µM | 9600 ± 2000 nM | 9.2 ± 2.5 µM | 8.4 ± 2.1 µM |  |  |  |  |  | 
7 | CC(=O)c1cccc(/N=N/c2ccc(O)c3ncccc23)c1 [Compound A6, (E)-1-(3-((8-Hydroxyquinolin-5-yl)diazenyl)phenyl)ethan-1-one] | 5.21 ± 1.2 µM | 7.42 ± 1.41 µM | 4.85 ± 1.2 µM | 82.5 ± 1.7% | 8.8 ± 2.3 µM | 9.5 ± 1.9 µM | 6900 ± 2100 nM | 7.6 ± 1.4 µM | 9.5 ± 1.5 µM |  |  |  |  |  | 
